Numbers after ± are expanded uncertainties.
Assays:
[1] = for Normal melting temperature: Crystal
[2] = Molar enthalpy of transition or fusion; conditions: Crystal; DSC

Structure (SMILES)	Normal melting temperature ([1]; DTA) [°C]	Glass transition temperature ([1]; Glass, DTA) [°C]	Molar enthalpy of transition or fusion [2] [kcal/mol]	Normal melting temperature [1] [°C]
CCCC[n+]1ccc(C)cc1.Cc1ccc(S(=O)(=O)[O-])cc1 [N-butyl-4-methylpyridinium tosylate]	51.71 ± 0.39	-57.3 ± 3	3.42 ± 0.0908	–
c1ccccc1 [benzene]	5.14 ± 0.39	–	–	–
CCCCCCCCCCO [decan-1-ol]	–	–	–	7.36 ± 0.93

More lines, now with the values ahead:

Normal melting temperature ([1]; DTA) [°C]	Glass transition temperature ([1]; Glass, DTA) [°C]	Molar enthalpy of transition or fusion [2] [kcal/mol]	Normal melting temperature [1] [°C]	Structure (SMILES)
–	–	–	-14.00 ± 0.93	CCCCCCCCO [octan-1-ol]
–	–	–	0.00 ± 0.93	O [water]

— the NIST ThermoML archive (doi:10.1021/je8006309)
